Results on three molecules are retold here after patent US6525022B1, “Receptor specific atrial natriuretic peptides” (Genentech, Inc., priority 1993, dated 2003).

As usually defined, the half-life is the time in which the quantity being followed falls by half.

Molecules are shown by their SMILES. Read-outs that look alike come from different tables or passages of the source. Where a SMILES comes first, the peptide text is derived from it. Bridges are numbered along the chain shown (N, C = ends).

The target in data set [1] is human NEP (hNEP), endopeptidase 24.11 (Homo sapiens, UniProt P08473). The data set can be described thus: Degradation of ANF variants by human NEP, half-life by HPLC.
For data set [2], the target named is T1, human natriuretic peptide receptor-A expressed in 293 cells (Homo sapiens, UniProt P16066).
T1 construct: expressed in transfected cells
T1 sequence (P16066 33-1061): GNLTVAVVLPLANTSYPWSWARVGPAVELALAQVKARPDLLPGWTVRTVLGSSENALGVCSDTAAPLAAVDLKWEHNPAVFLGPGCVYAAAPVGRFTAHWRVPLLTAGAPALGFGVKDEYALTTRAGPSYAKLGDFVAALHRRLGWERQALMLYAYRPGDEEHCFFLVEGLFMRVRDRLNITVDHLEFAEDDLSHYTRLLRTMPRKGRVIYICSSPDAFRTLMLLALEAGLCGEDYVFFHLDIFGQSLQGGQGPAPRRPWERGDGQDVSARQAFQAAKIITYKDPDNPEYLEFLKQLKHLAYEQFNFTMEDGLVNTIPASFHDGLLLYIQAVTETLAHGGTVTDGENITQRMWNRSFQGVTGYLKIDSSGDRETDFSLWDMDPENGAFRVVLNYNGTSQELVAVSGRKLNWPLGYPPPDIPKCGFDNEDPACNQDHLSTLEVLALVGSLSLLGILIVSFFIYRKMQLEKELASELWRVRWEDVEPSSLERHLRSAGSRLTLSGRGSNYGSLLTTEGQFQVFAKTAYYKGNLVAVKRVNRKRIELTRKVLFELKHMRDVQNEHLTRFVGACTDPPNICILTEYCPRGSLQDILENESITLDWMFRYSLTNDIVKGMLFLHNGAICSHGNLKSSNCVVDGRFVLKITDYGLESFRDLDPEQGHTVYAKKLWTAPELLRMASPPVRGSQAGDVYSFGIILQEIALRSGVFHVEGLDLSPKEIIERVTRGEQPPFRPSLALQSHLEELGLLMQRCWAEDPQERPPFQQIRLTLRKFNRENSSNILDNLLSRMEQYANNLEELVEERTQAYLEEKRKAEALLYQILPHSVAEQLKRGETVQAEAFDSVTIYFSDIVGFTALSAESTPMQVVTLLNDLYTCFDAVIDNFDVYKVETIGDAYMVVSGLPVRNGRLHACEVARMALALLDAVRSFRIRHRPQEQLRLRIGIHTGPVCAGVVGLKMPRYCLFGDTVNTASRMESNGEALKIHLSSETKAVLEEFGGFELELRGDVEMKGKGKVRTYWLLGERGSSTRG
Briefly: cGMP production in 293 cells expressing hNPR-A. The data set is classed as cell-based. How it is done: Stable 293 cell lines were maintained in glycine free F-12/Dulbecco's minimal essential medium (50/50, v/v) with 10% dialyzed fetal calf serum, 10 mM Hepes, […] of G418 (Geneticin, GIBCO/BRL), pH 7.2, in a humidified incubator at 37° C. with 7% CO2, 93% air. Cells were passaged using 136.8 mM NaCL, 2.6 mM KCl, 7.9 mM Na2HPO4, 1.4 mM KH2PO4, pH 7.2 (PBS) with 0.5 mM EDTA. For concentration-response experiments log phase cultures of 293 cell lines were passaged to 12 well plates at a density of 2.5×10^5 cells/well. After 48 hours cultures were approximately 50% confluent, and were used for stimulation of cGMP production. Peptide treatments were carried out essentially as described by Lowe and Fendly (1992). Briefly, dried peptide aliquots were resuspended in 0.1% (v/v) acetic acid to a stock concentration of 50 μM, and diluted to 1 μM in F-12/Dulbecco's minimal essential medium (50/50, v/v) with 25 mM Hepes, 0.1% (w/v) bovine serum albumin, 0.1 mM isobutylmethylxanthine at pH 7.2 (stimulation medium). Five-fold serial dilutions were prepared in stimulation medium using polypropylene tubes, then prewarmed to 37° C. before use. Cell culture medium was aspirated prior to adding 0.5 ml of stimulation medium plus peptides to monolayer cultures for 10 minutes at 37° C. Reactions were stopped by addition of 0.5 ml of ice cold 12% trichloroacetic acid to give a final volume of 1 ml. Culture plates were frozen on dry ice and stored at −20° C. prior to assay. For cGMP measurements samples were thawed at room temperature, and processed as described by Koller et al., Science 252:120-123 (1991), for cGMP radioimmunoassay (Biomedical Technologies, Inc). All stimulations were performed in triplicate, and samples were measured in duplicate for cGMP by radioimmumoassay. Predicted peptide concentrations were corrected based on quantitative amino acid analysis of duplicate samples from the same set of peptide aliquots used for the stimulation experiments.
Data analysis. The competition binding curves and cGMP production dose responses were analyzed by the four-parameter logistic equation with the KaleidaGraph™ program (Synergy Software, PA) to obtain estimates of the IC50 or EC50 values. The non linear least-squares curve fitting program SCATPLOT was used to analyze the competition binding curves according to a one-site or two-site binding model for competitor. A two-site binding model is reported when the fit to the data was statistically better (p<0.05) than a one-site fit.

Setting [3] is: isolated human NEP (endopeptidase 24.11) in HEPES buffer, Half-Life (min.), FIG. 7: ANF variants 32 nM/ml, NEP 0.45 μg/ml.

human NEP (hNEP), endopeptidase 24.11, sequence (P08473 whole entry): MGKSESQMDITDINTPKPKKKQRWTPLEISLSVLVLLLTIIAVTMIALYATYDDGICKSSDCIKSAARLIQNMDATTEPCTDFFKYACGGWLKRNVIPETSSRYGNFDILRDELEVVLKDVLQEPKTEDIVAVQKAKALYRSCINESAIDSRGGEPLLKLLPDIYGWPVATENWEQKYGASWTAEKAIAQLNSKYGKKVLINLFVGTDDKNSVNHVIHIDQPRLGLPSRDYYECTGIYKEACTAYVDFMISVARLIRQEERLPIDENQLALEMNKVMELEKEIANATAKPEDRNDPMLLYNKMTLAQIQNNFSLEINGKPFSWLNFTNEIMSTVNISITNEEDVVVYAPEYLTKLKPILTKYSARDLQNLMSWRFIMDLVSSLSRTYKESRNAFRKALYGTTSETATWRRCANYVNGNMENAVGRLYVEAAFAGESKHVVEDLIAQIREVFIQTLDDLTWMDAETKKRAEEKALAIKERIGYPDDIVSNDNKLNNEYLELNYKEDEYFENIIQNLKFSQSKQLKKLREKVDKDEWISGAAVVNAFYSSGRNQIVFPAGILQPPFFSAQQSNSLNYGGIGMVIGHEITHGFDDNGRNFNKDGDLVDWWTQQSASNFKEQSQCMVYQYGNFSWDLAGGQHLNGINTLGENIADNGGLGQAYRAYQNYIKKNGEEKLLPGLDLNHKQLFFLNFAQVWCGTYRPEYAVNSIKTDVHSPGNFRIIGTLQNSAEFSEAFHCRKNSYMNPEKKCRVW

`CC[C@H](C)[C@@H]1NC(=O)[C@H](CCCNC(=N)N)NC(=O)[C@H](CC(=O)O)NC(=O)[C@H]([C@@H](C)CC)NC(=O)[C@H](CO)NC(=O)CNC(=O)[C@H]([C@@H](C)O)NC(=O)[C@H](Cc2ccccc2)NC[C@@H](NC(=O)[C@H](CO)NC(=O)[C@H](CO)NC(=O)[C@H](CCCNC(=N)N)NC(=O)[C@H](CCCNC(=N)N)NC(=O)[C@H](CC(C)C)NC(=O)[C@@H](N)CO)CSSC[C@@H](C(=O)N[C@@H](CC(N)=O)C(=O)N[C@@H](CO)C(=O)N[C@@H](Cc2ccccc2)C(=O)N[C@@H](CCCNC(=N)N)C(=O)N[C@@H](Cc2ccc(O)cc2)C(=O)O)NC(=O)CNC(=O)[C@H](CC(C)C)NC(=O)CNC(=O)[C@H](CO)NC(=O)[C@H](CCC(N)=O)NC(=O)[C@H](C)NC(=O)[C@H](CCCNC(=N)N)NC1=O` [ANF 84] displayed a half-life at 32 nM/ml in data set [1] (setting [3]) of 39.9 h. In addition, in data set [2], the “Potency in cGMP production compared with rat ANP” value (“Potency … compared with rat ANP” below) is “potency very similar to rat ANP” and the “Stimulation of cGMP production (agonist efficacy)” value (“Stimulation of cGMP production” for short) is “full agonists”.
In data set [1], `CC[C@H](C)[C@@H]1NC(=O)[C@H](CCCNC(=N)N)NC(=O)[C@H](CC(=O)O)NC(=O)[C@H]([C@@H](C)CC)NC(=O)[C@H](CO)NC(=O)CNC(=O)[C@H]([C@@H](C)O)NC(=O)[C@H](Cc2ccccc2)NC(=O)[C@@H](NC(=O)[C@H](CO)NC(=O)[C@H](CO)NC(=O)[C@H](CCCNC(=N)N)NC(=O)[C@H](CCCNC(=N)N)NC(=O)[C@H](CC(C)C)NC(=O)[C@H](CO)NC(=O)[C@H](CCCNC(=N)N)NC(=O)[C@@H]2CCCN2C(=O)[C@H](C)NC(=O)[C@@H](N)[C@@H](C)O)CSSC[C@@H](C(=O)N[C@@H](CC(N)=O)C(=O)N[C@@H](CO)C(=O)N[C@@H](Cc2ccccc2)C(=O)N[C@@H](CCCNC(=N)N)C(=O)N[C@@H](Cc2ccc(O)cc2)C(=O)O)NC(=O)CNC(=O)[C@H](CC(C)C)NC(=O)CNC(=O)[C@H](CO)NC(=O)[C@H](CCC(N)=O)NC(=O)[C@H](C)NC(=O)[C@H](CCCNC(=N)N)NC1=O` [ANF 76] (H-TAPRSLRRSSCFTGSIDRIRAQSGLGCNSFRY-OH; disulfide 11-27; C-terminus assumed) returned a half-life at 32 nM/ml of 23.5 h. In addition, in data set [2], the “Potency … compared with rat ANP” value was “potency very similar to rat ANP” and the “Stimulation of cGMP production” value is listed as “full agonists”.
In data set [1] (setting [3]), `CC[C@H](C)[C@@H]1NC(=O)[C@H](CCCNC(=N)N)NC(=O)[C@H](CC(=O)O)NC(=O)[C@H]([C@@H](C)CC)NC(=O)[C@H](CO)NC(=O)CNC(=O)[C@H]([C@@H](C)O)NC(=O)[C@H](Cc2ccccc2)NC(=O)[C@@H](NC(=O)[C@H](CO)NC(=O)[C@H](CO)NC(=O)[C@H](CCCNC(=N)N)NC(=O)[C@H](CCCNC(=N)N)NC(=O)[C@H](CC(C)C)NC(=O)[C@@H](N)CO)CSSC[C@@H](C(=O)N[C@@H](CC(N)=O)C(=O)N[C@@H](CO)C(=O)N[C@@H](Cc2ccccc2)C(=O)N[C@@H](CCCNC(=N)N)C(=O)N[C@@H](Cc2ccc(O)cc2)C(=O)O)NC(=O)CNC(=O)[C@H](CC(C)C)NC(=O)CNC(=O)[C@H](CO)NC(=O)[C@H](CCC(N)=O)NC(=O)[C@H](C)NC(=O)[C@H](CCCNC(=N)N)NC1=O` [ANF 27] gave a half-life at 32 nM/ml of 5.57 h. Moreover, in data set [2], the “Potency … compared with rat ANP” value was “potency very similar to rat ANP” and the “Stimulation of cGMP production” value was “full agonists”.
